# In US8741330B2, “Transluminal drug delivery methods and devices” (priority 2006, dated 2014):
# Where a name gives a salt, the structure may show the parent alone.
# Assays:
# [1] = PDR 1997 p. 564; cited from earlier work
# [2] = 5 and 10 ml of water
# [3] = Blood pressure / hemodynamic monitoring after urethral suppository (Example 1); details: rabbit, urethral suppository approx. 100 mg lidocaine
Structure (SMILES),maximum recommended adult dose [1] [mg/kg],effect of fluid volume on pH of lidocaine/sodium bicarbonate [2],hemodynamic changes [3]
CCN(CC)CC(=O)Nc1c(C)cccc1C [lidocaine hydrochloride],4.5,–,–
CCN(CC)CC(=O)Nc1c(C)cccc1C [lidocaine],–,does not appear to have a major effect,No significant hemodynamic changes
